Values after ≈ are worked out from the molar mass of the structure shown. Active and inactive are the calls of the source. The rule behind the calls is not given here.
Assays:
E6SM = assay: Compound tested for cytotoxicity in human embryonic skin muscle E6SM cell cultures; format: functional
HEL [1] = assay: Antiviral activity against Cytomegalovirus virus (CMV) strain AD-169 in HEL cells; No specific activity; format: functional, cell-based; details: Homo sapiens
HEL [2] = assay: Antiviral activity against Cytomegalovirus virus (CMV) strain Davis in HEL cells; No specific activity; format: functional, cell-based; details: Homo sapiens
Human respirovirus 3 = assay: Antiviral activity against Parainfluenza-3; No activity; format: functional, organism-based
Punta Toro virus = assay: Antiviral activity against Punta Toro virus; No activity; format: functional, organism-based
Adenosylhomocysteinase [3] = target: T1, Adenosylhomocysteinase (Homo sapiens, UniProt P23526); assay: Binding affinity against S-Adenosyl-homocysteine hydrolase was determined
Target sequence in this assay (P23526 whole entry): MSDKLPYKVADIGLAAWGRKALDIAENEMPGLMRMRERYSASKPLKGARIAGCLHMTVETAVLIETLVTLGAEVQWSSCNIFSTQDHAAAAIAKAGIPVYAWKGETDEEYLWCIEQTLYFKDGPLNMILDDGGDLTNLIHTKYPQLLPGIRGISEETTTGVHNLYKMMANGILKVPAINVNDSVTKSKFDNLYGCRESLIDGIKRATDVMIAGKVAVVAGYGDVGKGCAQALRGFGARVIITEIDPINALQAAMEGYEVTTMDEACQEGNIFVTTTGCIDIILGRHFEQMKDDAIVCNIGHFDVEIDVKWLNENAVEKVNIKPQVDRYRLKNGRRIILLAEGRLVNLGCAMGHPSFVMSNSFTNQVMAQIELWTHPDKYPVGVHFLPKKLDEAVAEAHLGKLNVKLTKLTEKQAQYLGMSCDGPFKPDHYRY

Adenosylhomocysteinase [4] = target: T1, Adenosylhomocysteinase; assay: Change in the S-Adenosyl-homocysteine hydrolase enzyme's NAD+ content until complete inactivation was determined
Target sequence in this assay (P23526 2-432 limits assumed): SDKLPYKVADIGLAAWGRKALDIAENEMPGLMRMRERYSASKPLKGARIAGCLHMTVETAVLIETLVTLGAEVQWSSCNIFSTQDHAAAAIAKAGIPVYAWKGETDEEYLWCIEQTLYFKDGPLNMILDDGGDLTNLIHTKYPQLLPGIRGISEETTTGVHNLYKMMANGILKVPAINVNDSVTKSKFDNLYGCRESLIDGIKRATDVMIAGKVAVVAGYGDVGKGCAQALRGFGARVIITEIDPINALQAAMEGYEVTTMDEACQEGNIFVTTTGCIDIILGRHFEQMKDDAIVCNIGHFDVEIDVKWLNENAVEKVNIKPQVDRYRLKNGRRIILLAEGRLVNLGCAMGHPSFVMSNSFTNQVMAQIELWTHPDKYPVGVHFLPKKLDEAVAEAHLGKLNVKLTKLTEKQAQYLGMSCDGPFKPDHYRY

Adenosylhomocysteinase [5] = target: T1, Adenosylhomocysteinase; assay: Enzyme kinetic property: kinact value was determined
Target sequence in this assay (P23526 2-432 limits assumed): as above

Sindbis virus = assay: Antiviral activity against Sindbis; No activity; format: functional, organism-based
Tacaribe virus = assay: Activity against Taccaribe virus was determined; format: functional; details: Mammarenavirus tacaribeense
Vero = assay: Compound tested for cytotoxicity in vero cell culture was determined; format: functional, Chlorocebus sabaeus
Junin virus = assay: Activity against Junin virus was determined; format: functional; details: Mammarenavirus juninense
Coxsackievirus B4 = assay: Antiviral activity against Coxsackie B4 virus; No activity; format: functional, organism-based

Row | Compound | MTC (E6SM) [µM] | MIC (HEL [1]) | MIC (HEL [2]) | MIC (Human respirovirus 3) | MIC (Punta Toro virus) | Ki (Adenosylhomocysteinase [3]) [µM] | NAD (Adenosylhomocysteinase [4]) [%] | K inact (Adenosylhomocysteinase [5]) [min⁻¹] | MIC (Sindbis virus) | MIC (Tacaribe virus) [µM] | MTC (Vero) [µM] | MIC (Junin virus) [µM] | MIC (Coxsackievirus B4)
1 | C=CSC[C@H]1OC(n2cnc3c(N)ncnc32)[C@H](O)[C@@H]1O (stereo partly specified) | >650 | inactive | inactive | inactive | inactive | 4 | 18 | 0.07 | inactive | 40 (≈ 12.4 µg/mL) | >650 | 65 (≈ 20.1 µg/mL) | inactive
2 | N#CSC[C@H]1OC(n2cnc3c(N)ncnc32)[C@H](O)[C@@H]1O (stereo partly specified) | >650 | – | – | – | – | 67 | 16 | 0.59 | – | – | – | – | –
3 | C#CSC[C@H]1OC(n2cnc3c(N)ncnc32)[C@H](O)[C@@H]1O (stereo partly specified) | 30 | – | – | – | – | 10 | 36 | 0.12 | – | – | – | – | –
